Data taken from patent US20110263696A1, “PROANTHOCYANIDINS FROM CINNAMON AND ITS WATER SOLUBLE EXTRACT INHIBIT TAU AGGREGATION” (priority 2007, published 2011).

Tests used:
tau fragment (tau 187) = biological target: T1, tau fragment (tau 187) (Homo sapiens, UniProt P10636); test: Thioflavin T fluorescence assay of tau aggregation; assay type: biochemical
T1 construct: his; made in house; host or cells: bacteria
Description: In one illustrative embodiment of the invention, the effects of cinnamon proanthocyanidin or its extract can be determined by fluorescence measurements in the presence of a thioflavin derivative. If aggregation proceeds through formation of an ordered structure, enhancement of thioflavin occurs. This method can be used to quantify the effects of the proanthocyanidins on the rate and extent of tau aggregation.
An alternative method is to incubate tau in the absence of thioflavin under conditions that cause aggregation in the absence and presence of cinnamon proanthocyanidin. At different times aliquots are removed to measure the aggregation by examining the fluorescence of thioflavin T added to these aliquots. As thioflavin can affect aggregation itself and could compete partly with binding of proanthocyanidin this modified assay could maximize the effect of proanthocyanidin. Because it would necessitate removing aliquots from the reaction at different times and mixing in new reagents, it is less convenient and prone to additional errors.
This conclusion was reached by measuring changes in fluorescence of thioflavin T under conditions well documented to cause formation of tau aggregates.

FL-tau = biological target: T2, FL-tau (Homo sapiens, UniProt P10636); test: Turbidity assay of heparin-induced aggregation, FL-tau; assay type: biochemical; conditions: FL-tau 50 uM, heparin 0.1 mg/ml, pH 7.0; trimer 200 uM (FIG. 3a)
T2 construct: full-length tau and an engineered truncation fragment of tau (tau187) were generated by over-expression of the recombinant human protein in bacteria; made in house; host or cells: bacteria
T2 sequence (P10636 1-441 isoform P10636-8): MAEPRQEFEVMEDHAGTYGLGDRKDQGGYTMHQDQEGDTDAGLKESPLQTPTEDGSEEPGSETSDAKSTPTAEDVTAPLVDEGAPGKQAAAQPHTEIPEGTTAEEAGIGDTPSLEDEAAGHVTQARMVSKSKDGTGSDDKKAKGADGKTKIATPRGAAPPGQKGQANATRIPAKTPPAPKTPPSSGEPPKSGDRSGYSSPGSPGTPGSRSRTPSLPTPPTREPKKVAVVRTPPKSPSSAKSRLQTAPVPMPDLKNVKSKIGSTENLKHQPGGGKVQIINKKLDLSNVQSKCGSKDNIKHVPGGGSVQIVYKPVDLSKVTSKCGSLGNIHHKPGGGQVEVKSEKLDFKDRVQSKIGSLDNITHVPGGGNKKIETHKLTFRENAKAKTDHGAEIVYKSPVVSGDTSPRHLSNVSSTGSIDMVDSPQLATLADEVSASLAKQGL
Description: (§1) FIG. 3. Proanthocyanidins inhibit tau aggregation. A) Turbidity assay. Aggregation of FL-tau (50 uM) was initiated with heparin (0.1 mg/ml) in 20 mM NaPO4, pH 7.0. Curve 1: no proanthocyanidin; Curve 2: 200 uM purified A-type trimer. B) After 45 min, reactions were centrifuged at 100,000 g×60 min. The amount of tau in the pellets (P) vs. supernatants (S) were examined by SDS-PAGE. Markers (top to bottom) are 97, 66, 45 kDa. C, D) EM after aggregation for 45 min. Scale bars=500 nm; C) no proanthocyanidin, D) 200 uM purified A-type trimer.
(§2) As shown by the data disclosed in the various figures, proanthocyanidins bind to tau and inhibit tau aggregation. […] In these experiments, heparin-induced aggregation of tau into PHF-like fibers is routinely monitored by four methods: 1) enhanced Thioflavin S fluorescence emission; 2) increased turbidity measured by OD350; 3) ultracentrifugation of sarkosyl-treated samples, and 4) electron microscopy. […] To ensure that proanthocyanidin molecules were not simply binding to and precipitating tau in a non-specific manner, the amount of tau that fractionated with the pellet vs. supernatant after high-speed ultracentrifugation was analyzed.

tau polypeptides = test: Light scattering measurements (absorbance at 350 nm) of tau aggregation; assay type: biochemical, human
Chain of tau polypeptides (P10636 572-758 limits assumed): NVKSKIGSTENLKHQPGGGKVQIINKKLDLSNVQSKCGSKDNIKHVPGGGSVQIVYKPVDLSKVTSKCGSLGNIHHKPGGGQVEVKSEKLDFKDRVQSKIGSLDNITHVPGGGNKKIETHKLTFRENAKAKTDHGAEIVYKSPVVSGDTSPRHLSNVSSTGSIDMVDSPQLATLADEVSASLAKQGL
Description: FIG. 11. Dose response of cinnamon (oxidized) on tau aggregation. […] In this experiment, cinnamon was incubated overnight in 10 mM NH4OH.
FIG. 12. Effect of cinnamon A trimer on light scattering of tau.
In one illustrative embodiment of the invention, the effects of cinnamon extract or purified cinnamon proanthocyanidins on tau aggregation can be followed readily in a spectrophotometer by measuring the change in absorbance at 350 nm. The association of tau promoted by heparin causes an increase in absorbance. […] Different buffers and temperatures may be used if desired to study factor influencing aggregation.

Full-length tau = biological target: T3, Full-length tau (Homo sapiens, UniProt P10636); test: Ultracentrifugation and SDS-PAGE of pellet vs supernatant, full-length tau; assay type: biochemical; conditions: 200 uM trimer; 45 min; 100,000 g x 60 min (FIG. 3b)
T3 construct: full-length tau and an engineered truncation fragment of tau (tau187) were generated by over-expression of the recombinant human protein in bacteria; made in house; host or cells: bacteria
T3 sequence (P10636 1-441 isoform P10636-8): as the sequence (P10636 1-441 isoform P10636-8) above
Description: as §1
FIG. 4. Cinnamon extract inhibits tau aggregation. […] Samples were then treated with 1% sarkosyl for 1 hr, centrifuged (105,000 g×1 hr), and the pellets (P) versus supernatants (S) then analyzed by SDS-PAGE. […]
as §2

tau187 = biological target: T4, tau187 (Homo sapiens, UniProt P10636); test: UV absorbance spectra, binding to tau; conditions: trimer 15 uM, 0-17.6 uM tau187, isosbestic point
T4 construct: his; made in house; host or cells: bacteria
T4 sequence (P10636 572-758 limits assumed): as the sequence (P10636 572-758 limits assumed) above
Description: FIG. 2. UV absorbance spectra of purified A-type proanthocyanidin trimer as a function of increasing tau concentration. The curves from top to bottom (at A280) are as follows: 0 uM; 4.4 uM; 8.8 uM; 17.6 uM tau^187; proanthocyanidin trimer=15 uM. As is known in the art, the isobestic points are found where the curves overlap.
as §2, with “aggregation. In illustrative experiments, full-length tau and an engineered truncation fragment of tau (tau187) were generated by over-expression of the recombinant human protein in bacteria followed by purification to homogeneity by conventional chromatography. […] The UV spectra display an isosbestic point consistent with a specific binding mechanism.” for “aggregation.”

tau = test: Tau aggregation / AD fiber formation in vitro (method not specified); assay type: biochemical
Description: In a first illustrative embodiment of an extraction procedure of the invention, an extract is obtained by using nanopure water equal to 10 times the weight of cinnamon. The mixture is heated for 10 minutes at 95° C., cooled, and centrifuged at 14,000 rpm. The nearly clear supernatant is centrifuged again and then the clear supernatant is filtered through 0.4 and 0.2 micron filters and lyophilized. A fluffy pale tan colored powder can be obtained.

[1] = test system: Full-length tau or tau 187; test: Gel electrophoresis of sarkosyl pellets vs supernatants; assay type: biochemical, human
Chain of Full-length tau or tau 187 (P10636 572-758 limits assumed): as above
Description: In one illustrative embodiment of the invention, gel electrophoresis also can be used to study effects on aggregation. The advantage here is that simple equipment is needed for these measurements but the system provides less definition of the effects of the inhibitors than electron microscopy. Full-length tau or tau 187 (50 uM) is induced to undergo aggregation with heparin (0.1 mg/ml) for 16 hours at room temperature in the presence of varying concentrations of cinnamon extract or cinnamon proanthocyanidin type A trimer. Samples are then treated with 1% sarkosyl for 1 hr, centrifuged (105,000 g×1 hr), and the pellets (P) versus supernatants (S) then analyzed by SDS-PAGE. The increase in the ratio of tau in the pellet compared to the supernatant is a measure of aggregation and cinnamon extract or purified proanthocyanidin is found to decrease this ratio.

Chain of tau (P10636 572-758 limits assumed): as above
T1 sequence (P10636 572-758 limits assumed): as above

Inhibition of tau 187 aggregation by thioflavin T fluorescence (tau fragment (tau 187)): reduces aggregation of tau
Inhibition of FL-tau aggregation (turbidity) (FL-tau): dramatically inhibited
Tau in pellet vs supernatant after ultracentrifugation (Full-length tau): remain in the soluble fraction
Binding to tau by change in UV absorbance spectrum (tau187): displays affinity for monomeric tau
Binding to tau by change in UV absorbance spectrum (tau187; listed as proanthocyanidin A): binds directly to tau
Substance: A-linked proanthocyanidin trimer [A-type trimer]
Inhibition of tau aggregation by light scattering (tau polypeptides): inhibits the aggregation
Concentration that completely inhibits tau aggregation in vitro (tau; complete inhibition of tau aggregation/AD fiber formation): 0.17 mg/ml PA trimer
Effectiveness of purified PA trimer relative to CE (tau; same amount of PA trimer, fraction of CE effect): ½
Tau aggregation by gel electrophoresis [1]: less aggregation of tau
